Square brackets hold non-standard residues; d marks the D form. Peptide text beside a SMILES is read from it. Orn = NCCC[C@H](N)C(=O)O
Target: Programmed cell death protein 1/Programmed cell death 1 ligand 1 (Homo sapiens) (UniProt Q15116+Q9NZQ7)
Assay: Inhibition of PD1-Tag2/PD-L1-Tag1 (unknown origin) protein-protein interaction at 20 uM preincubated for 15 mins followed by addition of anti-Tag1-Eu3+ and anti-Tag2-XL665 measured after 3 hrs by HTRF assay relative to control
Format: protein-complex assay
Conditions: time 195.0 min

SMILES | inhibition [%]
CC(C)C[C@@H]1NC(=O)[C@H](CC(N)=O)NC(=O)[C@H]([C@@H](C)O)NC(=O)[C@@H]2CCCN2C(=O)[C@@H](Cc2ccccc2)NC(=O)[C@H](CC(C)C)NC(=O)[C@H](CCCNC(=N)N)NC(=O)[C@H](C(C)C)NC(=O)[C@@H]2CCCN2C(=O)[C@@H](Cc2ccccc2)NC1=O (cyclo(L[dF]PTNL[dF]PVR)) | 17
CC(C)C[C@@H]1NC(=O)[C@H](CC(=O)O)NC(=O)[C@H]([C@@H](C)O)NC(=O)[C@@H]2CCCN2C(=O)[C@@H](Cc2ccccc2)NC(=O)[C@H](Cc2cnc[nH]2)NC(=O)[C@H](CCCNC(=N)N)NC(=O)[C@H](C(C)C)NC(=O)[C@@H]2CCCN2C(=O)[C@@H](Cc2ccccc2)NC1=O (cyclo(DL[dF]PVRH[dF]PT)) | 7.13
CC(NCCCC[C@@H]1NC(=O)[C@@H](Cc2ccccc2)NC(=O)[C@H](CC(C)C)NC(=O)[C@H](CC(=O)O)NC(=O)[C@H](C(C)C)NC(=O)[C@@H]2CCCN2C(=O)[C@@H](Cc2c[nH]c3ccccc23)NC(=O)[C@H](CC(C)C)NC(=O)[C@H](CCCNC(=N)N)NC(=O)[C@H](C(C)C)NC1=O)=C1C(=O)CC(C)(C)CC1=O | 3.86
CC(C)C[C@@H]1NC(=O)[C@H](CC(=O)O)NC(=O)[C@H]([C@@H](C)O)NC(=O)[C@@H]2CCCN2C(=O)[C@@H](Cc2ccccc2)NC(=O)[C@H](CC(C)C)NC(=O)[C@H](Cc2cnc[nH]2)NC(=O)[C@H](C(C)C)NC(=O)[C@@H]2CCCN2C(=O)[C@@H](Cc2ccccc2)NC1=O (cyclo(DL[dF]PVHL[dF]PT)) | 6.8
CC(C)C[C@@H]1NC(=O)[C@H](CC(=O)O)NC(=O)[C@H](C(C)C)NC(=O)[C@@H]2CCCN2C(=O)[C@@H](Cc2ccccc2)NC(=O)[C@H](CC(C)C)NC(=O)[C@H](CCCNC(=N)N)NC(=O)[C@H](C(C)C)NC(=O)[C@@H]2CCCN2C(=O)[C@@H](CCC(=O)O)NC1=O (cyclo(DL[dE]PVRL[dF]PV)) | 22.5
CC(C)C[C@@H]1NC(=O)[C@H](CCCNC(=N)N)NC(=O)[C@H](C(C)C)NC(=O)[C@@H]2CCCN2C(=O)[C@@H](Cc2ccccc2)NC(=O)[C@H](CC(=O)O)NC(=O)[C@H](CC(C)C)NC(=O)[C@H]([C@@H](C)O)NC(=O)[C@@H]2CCCN2C(=O)[C@@H](Cc2ccccc2)NC1=O (cyclo(D[dF]PVRL[dF]PTL)) | -5.92
CC(NCCCC[C@@H]1NC(=O)[C@@H](Cc2ccccc2)NC(=O)[C@H](CC(C)C)NC(=O)[C@H](CC(=O)O)NC(=O)[C@H]([C@@H](C)O)N(C)C(=O)[C@@H]2CCCN2C(=O)[C@@H](Cc2c[nH]c3ccccc23)NC(=O)[C@H](CC(C)C)NC(=O)[C@H](CCCNC(=N)N)NC(=O)[C@H](C(C)C)NC1=O)=C1C(=O)CC(C)(C)CC1=O | 32.3
CC(C)C[C@@H]1NC(=O)[C@H](CCCNC(=N)N)NC(=O)[C@H](C(C)C)NC(=O)[C@@H]2CCCN2C(=O)[C@@H](Cc2ccccc2)NC(=O)[C@H](Cc2cnc[nH]2)NC(=O)[C@H](CC(=O)O)NC(=O)[C@H]([C@@H](C)O)NC(=O)[C@@H]2CCCN2C(=O)[C@@H](Cc2ccccc2)NC1=O (cyclo(DH[dF]PVRL[dF]PT)) | -8.61
CC(C)C[C@@H]1NC(=O)[C@H](CCCNC(=N)N)NC(=O)[C@H](C)NC(=O)[C@@H]2CCCN2C(=O)[C@@H](Cc2ccccc2)NC(=O)[C@H](C)NC(=O)[C@H](CCCNC(=N)N)NC(=O)[C@H](C)NC(=O)[C@@H]2CCCN2C(=O)[C@@H](Cc2ccccc2)NC1=O (cyclo(ARA[dF]PARL[dF]P)) | 0.7
CC(C)C[C@@H]1NC(=O)[C@H](CC(=O)O)NC(=O)[C@H]([C@@H](C)O)NC(=O)[C@@H]2CCCN2C(=O)[C@@H](Cc2ccccc2)NC(=O)[C@H](CC(C)C)NC(=O)[C@H](CCCCN)NC(=O)[C@H](C(C)C)NC(=O)[C@@H]2CCCN2C(=O)[C@@H](Cc2ccccc2)NC1=O (cyclo(DL[dF]PVKL[dF]PT)) | 3.52
CC(C)C[C@@H]1NC(=O)[C@H](CCCN)NC(=O)[C@H](C(C)C)NC(=O)[C@@H]2CCCN2C(=O)[C@@H](Cc2ccccc2)NC(=O)[C@H](CC(C)C)NC(=O)[C@H](CCCN)NC(=O)[C@H](C(C)C)NC(=O)[C@@H]2CCCN2C(=O)[C@@H](Cc2ccccc2)NC1=O (cyclo(V[Orn]L[dF]PV[Orn]L[dF]P)) | 6.86
CC(C)C[C@@H]1NC(=O)[C@H](CCC(=O)O)NC(=O)[C@H]([C@@H](C)O)NC(=O)[C@@H]2CCCN2C(=O)[C@@H](Cc2ccccc2)NC(=O)[C@H](CC(C)C)NC(=O)[C@H](CCCNC(=N)N)NC(=O)C(C(C)C)NC(=O)[C@@H]2CCCN2C(=O)[C@@H](Cc2ccccc2)NC1=O (stereo partly drawn) | 20.6
CC(C)C[C@@H]1NC(=O)[C@H](CO)NC(=O)[C@H]([C@@H](C)O)NC(=O)[C@@H]2CCCN2C(=O)[C@@H](Cc2ccccc2)NC(=O)[C@H](CC(C)C)NC(=O)[C@H](CCCNC(=N)N)NC(=O)[C@H](C(C)C)NC(=O)[C@@H]2CCCN2C(=O)[C@@H](Cc2ccccc2)NC1=O (cyclo(L[dF]PTSL[dF]PVR)) | 29.7
CC(C)C[C@@H]1NC(=O)[C@H](CCCNC(=N)N)NC(=O)[C@H](C(C)C)NC(=O)[C@@H]2CCCN2C(=O)[C@@H](Cc2ccccc2)NC(=O)[C@H](CC(C)C)NC(=O)[C@H]([C@@H](C)O)NC(=O)[C@@H]2CCCN2C(=O)[C@H](CC(=O)O)NC(=O)[C@@H](Cc2ccccc2)NC1=O (cyclo(DPTL[dF]PVRL[dF])) | 12.9
CC(C)C[C@@H]1NC(=O)[C@H](CC(=O)O)NC(=O)[C@H]([C@@H](C)O)NC(=O)[C@@H]2CCCN2C(=O)[C@@H](Cc2ccccc2)NC(=O)[C@H](CC(C)C)NC(=O)[C@H](CC(N)=O)NC(=O)[C@H](C(C)C)NC(=O)[C@@H]2CCCN2C(=O)[C@@H](Cc2ccccc2)NC1=O (cyclo(DL[dF]PVNL[dF]PT)) | 16.6
CC(C)C[C@@H]1NC(=O)[C@H](CCCNC(=N)N)NC(=O)[C@H](C(C)C)NC(=O)[C@H](CC(=O)O)NC(=O)[C@@H]2CCCN2C(=O)[C@@H](Cc2ccccc2)NC(=O)[C@H](CC(C)C)NC(=O)[C@H]([C@@H](C)O)NC(=O)[C@@H]2CCCN2C(=O)[C@@H](Cc2ccccc2)NC1=O (cyclo(DVRL[dF]PTL[dF]P)) | 1.93
CC(C)C[C@@H]1NC(=O)[C@H](CCCNC(=N)N)NC(=O)[C@H](C(C)C)NC(=O)[C@@H]2CCCN2C(=O)[C@@H](Cc2ccccc2)NC(=O)[C@H](C)NC(=O)[C@H](CC(=O)O)NC(=O)[C@H]([C@@H](C)O)NC(=O)[C@@H]2CCCN2C(=O)[C@@H](Cc2ccccc2)NC1=O (cyclo(A[dF]PVRL[dF]PTD)) | -5.69
CC(C)C[C@@H]1NC(=O)[C@H](CC(=O)O)NC(=O)[C@H]([C@@H](C)O)NC(=O)[C@@H]2CCCN2C(=O)[C@@H](Cc2ccccc2)NC(=O)[C@H](CC(C)C)NC(=O)[C@H](CCCNC(=N)N)NC(=O)[C@H](C(C)C)NC(=O)[C@@H]2CCCN2C(=O)[C@@H](Cc2c[nH]c3ccccc23)NC1=O (cyclo(DL[dW]PVRL[dF]PT)) | 35.8
CC(C)C[C@@H]1NC(=O)[C@H](CCCNC(=N)N)NC(=O)[C@H](C(C)C)NC(=O)[C@@H]2CCCN2C(=O)[C@@H](Cc2ccccc2)NC(=O)[C@H](CC(C)C)NC(=O)[C@H](CCCNC(=N)N)NC(=O)[C@H](C(C)C)NC(=O)[C@@H]2CCCN2C(=O)[C@@H](C)NC1=O (cyclo(L[dA]PVRL[dF]PVR)) | 9.49
CC(C)C[C@@H]1NC(=O)[C@H](CCCNC(=N)N)NC(=O)[C@H](C(C)C)NC(=O)[C@@H]2CCCN2C(=O)[C@@H](Cc2ccccc2)NC(=O)[C@H](C)NC(=O)[C@H](CCC(=O)O)NC(=O)[C@H](C)NC(=O)[C@@H]2CCCN2C(=O)[C@@H](Cc2ccccc2)NC1=O | -6.08
CC(C)C[C@@H]1NC(=O)[C@H](CCCNC(=N)N)NC(=O)[C@H](C(C)C)NC(=O)[C@H](C)NC(=O)[C@@H](Cc2ccccc2)NC(=O)[C@H](C)NC(=O)[C@H](CCCNC(=N)N)NC(=O)[C@H](C(C)C)NC(=O)[C@@H]2CCCN2C(=O)[C@@H](Cc2ccccc2)NC1=O (cyclo(AVRL[dF]PVRA[dF])) | -0.657
CC(C)C[C@@H]1NC(=O)[C@H](CCCNC(=N)N)NC(=O)[C@H](C(C)C)NC(=O)[C@@H]2CCCN2C(=O)[C@@H](Cc2ccccc2)NC(=O)[C@H](CC(C)C)NC(=O)[C@H](CCCNC(=N)N)NC(=O)[C@H](C(C)C)NC(=O)[C@@H]2CCCN2C(=O)[C@@H](Cc2ccccc2)NC1=O (cyclo(L[dF]PVRL[dF]PVR)) | -5.54
CC(C)C[C@@H]1NC(=O)[C@H](Cc2ccc(O)cc2)NC(=O)[C@H]([C@@H](C)O)NC(=O)[C@@H]2CCCN2C(=O)[C@@H](Cc2ccccc2)NC(=O)[C@H](CC(C)C)NC(=O)[C@H](CCCNC(=N)N)NC(=O)[C@H](C(C)C)NC(=O)[C@@H]2CCCN2C(=O)[C@@H](Cc2ccccc2)NC1=O (cyclo(L[dF]PTYL[dF]PVR)) | 8.25
CC(C)C[C@@H]1NC(=O)[C@H](CCCNC(=N)N)NC(=O)[C@H]([C@@H](C)O)NC(=O)[C@@H]2CCCN2C(=O)[C@@H](Cc2ccccc2)NC(=O)[C@H](CC(C)C)NC(=O)[C@H](CCCNC(=N)N)NC(=O)[C@H](C(C)C)NC(=O)[C@@H]2CCCN2C(=O)[C@@H](Cc2ccccc2)NC1=O (cyclo(L[dF]PTRL[dF]PVR)) | 16.9
CC(C)C[C@@H]1NC(=O)[C@H](COP(=O)(O)O)NC(=O)[C@H]([C@@H](C)O)NC(=O)[C@@H]2CCCN2C(=O)[C@@H](Cc2ccccc2)NC(=O)[C@H](CC(C)C)NC(=O)[C@H](CCCNC(=N)N)NC(=O)[C@H](C(C)C)NC(=O)[C@@H]2CCCN2C(=O)[C@@H](Cc2ccccc2)NC1=O | 26
CC(C)C[C@@H]1NC(=O)[C@H](CCCNC(=N)N)NC(=O)[C@H](C(C)C)NC(=O)[C@@H]2CCCN2C(=O)[C@@H](Cc2ccccc2)NC(=O)[C@H](CC(C)C)NC(=O)[C@H](CCCNC(=N)N)NC(=O)[C@H](C(C)C)NC(=O)[C@H](C)NC(=O)[C@@H](Cc2ccccc2)NC1=O (cyclo(L[dF]AVRL[dF]PVR)) | 27.2
CC(C)C[C@@H]1NC(=O)[C@H](CC(=O)O)NC(=O)[C@H]([C@@H](C)O)NC(=O)[C@@H]2CCCN2C(=O)[C@@H](Cc2ccccc2)NC(=O)[C@H](CC(C)C)NC(=O)[C@H](CCC(N)=O)NC(=O)[C@H](C(C)C)NC(=O)[C@@H]2CCCN2C(=O)[C@@H](Cc2ccccc2)NC1=O (cyclo(DL[dF]PVQL[dF]PT)) | 47.5
CC(NCCCC[C@@H]1NC(=O)[C@@H](Cc2ccccc2)NC(=O)[C@H](CC(C)C)N(C)C(=O)[C@H](CC(=O)O)NC(=O)[C@H]([C@@H](C)O)NC(=O)[C@@H]2CCCN2C(=O)[C@@H](Cc2c[nH]c3ccccc23)NC(=O)[C@H](CC(C)C)NC(=O)[C@H](CCCNC(=N)N)NC(=O)[C@H](C(C)C)NC1=O)=C1C(=O)CC(C)(C)CC1=O | 19.5

Source: ChEMBL document CHEMBL4665770, “Design and Discovery of Natural Cyclopeptide Skeleton Based Programmed Death Ligand 1 Inhibitor as Immune Modulator for Cancer Therapy” (J Med Chem, 2020)
